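Values below derive from 48-hour exposures of cells grown in 96-well plates, with endpoints linearly interpolated between the two concentrations bracketing the appropriate inhibition level. TGI marks complete inhibition of growth.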
How the values were obtained:
Assay in all cases: NCI anticancer screen, dose series, 48 h
[1] = tested on: BT-549 breast
[2] = tested on: CAKI-1 renal
[3] = tested on: COLO 205 colon
[4] = tested on: HCT-116 colon
[5] = tested on: HCT-15 colon
[6] = tested on: HS 578T breast
[7] = tested on: IGROV1 ovarian
[8] = tested on: MDA-MB-231 breast
[9] = tested on: MDA-MB-435
[10] = tested on: NCI-H226 lung
[11] = tested on: NCI/ADR-RES ovarian
[12] = tested on: OVCAR-4 ovarian
[13] = tested on: RXF 393 renal
[14] = tested on: SK-MEL-2 melanoma
[15] = tested on: TK-10 renal
[16] = tested on: UACC-257 melanoma
[17] = tested on: UACC-62 melanoma
[18] = tested on: HL-60(TB) leukemia
[19] = tested on: LOX IMVI melanoma
[20] = tested on: SK-MEL-28 melanoma

Structure (SMILES) | TGI [1] | TGI [2] | TGI [3] | TGI [4] | TGI [5] | TGI [6] | TGI [7] | TGI [8] | TGI [9] | TGI [10] | TGI [11] | TGI [12] | TGI [13] | TGI [14] | TGI [15] | TGI [16] | TGI [17] | TGI [18] | TGI [19] | TGI [20]
Cc1cc(N(CCC#N)CCC#N)ccc1/C(N=Nc1ccc(C(=O)O)cc1)=N\NC(=O)c1cc(Cl)ccc1O | > 100 µM | > 100 µM | > 100 µM | > 100 µM | > 100 µM | 47.1 µM | 59 µM | 63.1 µM | > 100 µM | 49.9 µM | > 100 µM | 97 µM | 78.9 µM | > 100 µM | > 100 µM | > 100 µM | > 100 µM |  |  | 
COc1ccc(-n2c(=O)[nH]n(C(C)=O)c2=O)cc1 |  | > 100 µM | > 100 µM | > 100 µM | > 100 µM | > 100 µM | > 100 µM | > 100 µM | > 100 µM | > 100 µM | > 100 µM | > 100 µM | > 100 µM | > 100 µM | > 100 µM | > 100 µM | > 100 µM | > 100 µM | > 100 µM | > 100 µM
CC(C)OCC1CC(CC(=O)Nc2nncs2)C(=O)O1 (configuration not stated) | > 100 µM | > 100 µM | > 100 µM | > 100 µM | > 100 µM | > 100 µM | > 100 µM | > 100 µM | > 100 µM | > 100 µM | > 100 µM | > 100 µM |  | > 100 µM | > 100 µM | > 100 µM | > 100 µM |  | > 100 µM | > 100 µM
C/C=C\C(CC(=O)NCCC1CN(S(=O)(=O)c2ccc(C)cc2)c2ccccc21)CC(=O)OC (configuration not stated) | > 100 µM | > 100 µM | > 100 µM | > 100 µM | > 100 µM | > 100 µM | > 100 µM | > 100 µM | > 100 µM |  | > 100 µM | > 100 µM | > 100 µM | > 100 µM | > 100 µM | > 100 µM | > 100 µM |  |  | > 100 µM
O=c1c2nc3ccccc3c(=O)n2ncn1-c1ccccc1Cl | > 100 µM | > 100 µM | > 100 µM | > 100 µM | > 100 µM | > 100 µM | > 100 µM | > 100 µM | > 100 µM | > 100 µM |  | > 100 µM |  | > 100 µM | > 100 µM | > 100 µM | > 100 µM | > 100 µM | > 100 µM | > 100 µM
CN(C)C(=S)/N=c1\ssc(=S)n1Cc1ccccc1 | > 100 µM | > 56.2 µM | 1.95 µM | 29.6 µM | > 49.6 µM |  | > 46.4 µM | 42.6 µM | 0.269 µM | 28 µM | 0.401 µM | 30.2 µM | 1 µM | 9.67 µM | 47.1 µM | > 56.2 µM | 16.8 µM | 5.31 µM | > 63.1 µM | > 63.1 µM
COc1cc2c(cc1OCCCCN1C(=O)c3cccc4cccc(c34)C1=O)N=C[C@@H]1CCCN1C2=O | 28.7 µM | 10.1 µM | 8.21 µM | 14 µM | 14.8 µM |  | 6.01 µM | 29.4 µM | > 35.6 µM | 23.5 µM | 28.4 µM | 18.3 µM | 3.63 µM | 17.9 µM | 6.91 µM | 37.7 µM | 39.9 µM |  | > 100 µM | 38.2 µM
CN(C)CCNC(=O)c1cc([N+](=O)[O-])cc2c1Oc1ccccc1O2 | > 100 µM | > 100 µM | 33.3 µM | > 100 µM |  | 99.8 µM | > 100 µM |  | > 100 µM | 50 µM | > 100 µM | > 100 µM | 93.7 µM | 56.3 µM | > 100 µM | > 100 µM | 39.2 µM | > 100 µM | > 100 µM | > 100 µM
CN(C)CCCNc1ccc([N+](=O)[O-])c2nc3ccccc3c(N)c12 | 4.75 µM | > 10 µM |  | 1.33 µM | 1.7 µM | > 10 µM | 6.47 µM | 2.53 µM | 2.26 µM | > 10 µM | 1.84 µM | 0.595 µM | 2.29 µM | 2.69 µM | > 10 µM | > 10 µM | > 10 µM |  | 1.63 µM | > 10 µM
S=C1N(/N=C/c2c3ccccc3cc3ccccc23)C(=Nc2ccccc2)C(=Nc2ccccc2)N1c1ccccc1 | > 100 µM | > 100 µM | > 100 µM | > 100 µM | > 100 µM | > 100 µM | > 100 µM | > 100 µM | > 100 µM | > 100 µM | > 100 µM |  | > 100 µM | > 100 µM | > 100 µM | > 100 µM | > 100 µM |  |  | > 100 µM
Cc1ccc(NC2=CC(=O)C(NO)c3ccccc32)cc1 (configuration not stated) | 26.4 µM | 6.73 µM | 8.72 µM | 8.77 µM | 10.4 µM |  | 4.6 µM | 7.12 µM |  | 49.3 µM | 5.81 µM | 9.71 µM | 12.7 µM | 8.99 µM | 62.7 µM | 3.84 µM | 4 µM | 4.73 µM | 11.7 µM | 29.5 µM
O=c1ccn([C@@H]2C[C@@H]2CO)c(=O)[nH]1 | > 100 µM | > 100 µM | > 100 µM | > 100 µM | > 100 µM | > 100 µM | > 100 µM |  | > 100 µM | > 100 µM | > 100 µM | > 100 µM | > 100 µM | > 100 µM | > 100 µM | > 100 µM | > 100 µM | > 100 µM | > 100 µM | > 100 µM
COc1ccc(CNC(=O)NCn2cc(-c3ccccc3)nn2)cc1 | > 100 µM | > 100 µM | > 100 µM | > 100 µM | > 100 µM |  | > 100 µM | > 100 µM | > 100 µM |  | > 100 µM | > 100 µM |  | > 100 µM | > 100 µM | > 100 µM |  | > 100 µM | > 100 µM | > 100 µM

Source: PubChem BioAssay (NCI)
